Data: patent US11186577B2, “Vasopressin receptor antagonists and products and methods related thereto” (BlackThorn Therapeutics, Inc., priority 2017, dated 2021)
Where two headings read alike, the source gives them in different places.

Columns and labels:
[1] = target: human Arginine Vasopressin Receptor 1a (AVPR1a) (Homo sapiens (Human), UniProt P37288); test: Vasopressin V1A receptor antagonist assay (AVP-evoked calcium, FLIPR, CHO-AVPR1a cells); format: cell-based
Description: The purpose of this assay was to determine the inhibitory effect of synthesized compounds on the Vasopressin V1a receptor. The assay as performed in Chinese Hamster Ovary (CHO) cells expressing the human Arginine Vasopressin Receptor 1a (AVPR1a). Arginine Vasopressin (AVP) evokes an increase in intracellular calcium in CHO-AVPR1a cells which is measured in a fluorescence assay on the FLIPR^TETRA using calcium sensitive dyes. Test compounds were assessed for their ability to affect the magnitude of the response to AVP, with antagonists showing a concentration-dependent reduction in the AVP-mediated fluorescence. Compounds were tested in duplicate in a 10-point, 1:3 dilution series starting at a nominal concentration of 3 μM in the assay.
CHO-AVPR1a cells were maintained in routine culture in T175 Flasks at 37° C., 5% CO2. The growth medium consists of Ham's F12 media supplemented with 10% v/v fetal bovine serum, 1× non-essential amino acids, and 0.4 mg/ml Geneticin G418.
On day one, cells were harvested from T175 flasks when they are 80-90% confluent by first washing the cell monolayer with PBS and then dissociated using trypsin 0.05%/EDTA (3 mL for a T175 Flask). The flasks were incubated at room temperature until the cells detached. To the cell suspension, 10 ml of growth media was added and the cell density determined using the Vi-Cell automated cell counter. The cells were spun at 1000 rpm for 3 minutes, then the supernatant was carefully removed and discarded. The cell pellet was re-suspended at 6.0e^5 cells/ml in growth media. 25 μL of cells in growth media was dispensed into each well (15,000 cells per well) of a poly-D-lysine coated black, clear bottomed, 384-well plate. The plates were incubated at 37° C., 5% CO2 overnight.
At the start of each assay day, the potency of AVP was assessed and an EC80 concentration determined for subsequent compound profiling. Assays were performed using a two-step addition protocol on the FLIPR^TETRA; first addition of 5 μl of control or test compound at 10× final in assay buffer with 15 min incubation at 37° C., 5% CO2 followed by 10 μl of AVP at 6× final concentration in assay buffer. […] The assay buffer consisted of HBSS (+Ca/+Mg) supplemented with 20 mM HEPES, and for the preparation of the AVP agonist only, 0.1% w/v bovine serum albumin. The assay was initiated by the removal of growth media from the cells and replacement with 45 μl of Calcium-6 dye (Molecular Devices) prepared at 1× in assay buffer. Cells are loaded with dye for 60-90 min at 37° C., 5% CO2 before initiation of the FLIPR^TETRA protocol. […] At the end of the incubation period, 10 μl of AVP in assay buffer containing 0.1% BSA was added at the previously determined EC80 concentration.

[2] = target: human Oxytocin Receptor (hOTR) (Homo sapiens (Human), UniProt P30559); test: Oxytocin receptor antagonist assay (oxytocin-evoked calcium, FLIPR, CHEM-1-hOTR cells); format: cell-based; details: read-out: OT IC50
Sequence of human Oxytocin Receptor (hOTR) (P30559 whole entry): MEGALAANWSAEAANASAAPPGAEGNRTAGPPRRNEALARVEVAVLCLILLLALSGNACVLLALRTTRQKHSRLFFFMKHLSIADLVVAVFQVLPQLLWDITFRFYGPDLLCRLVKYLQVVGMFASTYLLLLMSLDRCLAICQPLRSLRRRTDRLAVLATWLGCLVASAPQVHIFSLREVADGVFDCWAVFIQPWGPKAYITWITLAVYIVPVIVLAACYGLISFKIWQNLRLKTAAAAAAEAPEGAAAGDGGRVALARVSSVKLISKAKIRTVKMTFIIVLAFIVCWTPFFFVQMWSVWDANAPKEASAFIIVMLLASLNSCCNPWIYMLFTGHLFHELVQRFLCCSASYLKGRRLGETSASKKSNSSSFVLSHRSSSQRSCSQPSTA
Description: This assay was performed in CHEM-1 cells expressing the human Oxytocin Receptor (hOTR) to determine the inhibitory effect of the compounds of the invention on the human Oxytocin receptor. Oxytocin evokes an increase in intracellular calcium in CHEM-1-hOTR cells which is measured in a fluorescence assay on the FLIPR^TETRA using calcium sensitive dyes. Test compounds were assessed for their ability to affect the magnitude of the response to oxytocin, with antagonists showing a concentration-dependent reduction in the oxytocin-mediated fluorescence.
CHEM-1-hOTR ready was used to assay frozen cells (Eurofins #HTS090RTA) which are supplied with a proprietary Media Component.
Cells were thawed in a 37° C. water bath and diluted with the supplied Media Component to a final volume of 10 ml. The cell suspension was centrifuged at 1000 rpm for 3 min at room temperature and the supernatant was discarded. The cell pellet was resuspended in Media Component (10.5 ml) and the cells (25 μL) were dispensed into a poly-D-lysine coated black, clear bottomed, 384-well plate. The plates were incubated overnight at 37° C., 5% CO2.
At the start of each assay day the potency of oxytocin was assessed and an EC80 concentration was determined for subsequent compound profiling. Assays were performed using a two-step addition protocol on the FLIPR^TETRA; first addition of 5 μl of control or test compound at 10× final in assay buffer with 15 min incubation at 37° C., 5% CO2 followed by 10 μl of oxytocin at 6× final concentration in assay buffer. Changes in fluorescence were monitored for 3 min after both additions on the FLIPR^TETRA using 470-495 nm excitation and 515-575 nm emission wavelengths. The assay buffer consisted of HBSS (+Ca/+Mg) supplemented with 20 mM HEPES, and for the preparation of the oxytocin agonist only, 0.1% w/v bovine serum albumin. The assay was initiated by the removal of growth media from the cells and replaced with 45 μl of Calcium-6 dye (Molecular Devices) prepared at 1× in assay buffer. Cells were loaded with dye for 60-90 min at 37° C., 5% CO2 before initiation of the FLIPR^TETRA protocol. […] For compound profiling, test compounds were first serially diluted in DMSO (10-point curve, 1:3 dilutions) then diluted 33.3-fold in assay buffer prior to addition to the dye loaded cells on the FLIPR^TETRA. At the end of the incubation period 10 μl of oxytocin in assay buffer containing 0.1% BSA was added at the previously determined EC80 concentration.
In-plate controls for the assay include a L-368,899 concentration-response curve as the reference OTR antagonist and an oxytocin concentration-response curve to confirm the reproducibility of the EC80 used for the compound challenge.

Sequence of human Arginine Vasopressin Receptor 1a (AVPR1a) (P37288 whole entry): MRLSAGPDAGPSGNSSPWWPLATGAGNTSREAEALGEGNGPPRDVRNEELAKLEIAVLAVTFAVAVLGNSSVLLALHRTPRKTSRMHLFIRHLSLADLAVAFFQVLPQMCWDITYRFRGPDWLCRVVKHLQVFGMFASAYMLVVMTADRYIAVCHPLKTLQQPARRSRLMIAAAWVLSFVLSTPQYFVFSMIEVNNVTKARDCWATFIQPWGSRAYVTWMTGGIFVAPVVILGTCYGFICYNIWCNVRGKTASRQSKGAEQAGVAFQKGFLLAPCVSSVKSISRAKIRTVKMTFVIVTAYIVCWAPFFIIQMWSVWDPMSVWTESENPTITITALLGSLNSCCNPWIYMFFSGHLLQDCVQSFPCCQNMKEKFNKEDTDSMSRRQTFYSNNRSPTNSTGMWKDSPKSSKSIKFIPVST

SMILES | IC50 ([1]; read-out: V1a IC50) [nM] | IC50 [2] [nM] | IC50 [1] [nM]
O=C(C(F)F)N1Cc2cc(Cl)ccc2-n2c(nnc2C2CC3(C2)CN(C(=O)C2CC2)C3)C1 [compound 138] | < 100 | > 1000 | 
CC1c2nnc(C3CC4(C3)CN(c3ccc(F)cn3)C4)n2-c2ccc(Cl)cc2CN1C(=O)OC(CF)CF (single isomer, unassigned) [Cpd 203B] | > 1000 | > 1000 | 
CCC(=O)N1Cc2cc(Cl)ccc2-n2c(nnc2C2CC3(C2)CN(c2cccc(C)n2)C3)C1 [compound 109] | < 100 | > 1000 | 
CCC(=O)N1Cc2cc(Cl)ccc2-n2c(nnc2C2CC3(C2)CN(c2ncc(F)cn2)C3)C1 [compound 157] | < 100 | > 1000 | 
COC(=O)N1Cc2cc(Cl)ccc2-n2c(C3CC4(C3)CN(c3ncncc3F)C4)nnc2C1C (centres unmarked) [compound 188] | < 100 | 100 to 500 | 
CCOC(=O)N1Cc2cc(Cl)ccc2-n2c(C3CC4(C3)CN(c3nccc(C(F)F)n3)C4)nnc2C1C (centres unmarked) [compound 189] | < 100 | > 1000 | 
CCC(=O)N1Cc2cc(Cl)ccc2-n2c(nnc2C2CC3(C2)CN(C(=O)C2CCC2)C3)C1 [compound 37] | < 100 | > 1000 | 
CN1Cc2cc(Cl)ccc2-n2c(nnc2C2CC3(C2)CN(C(=O)C2COC2)C3)C1 [compound 14] | > 1000 | > 1000 | 
COc1cccc(N2CC3(CC(c4nnc5n4-c4ccc(Cl)cc4CN(C)C5)C3)C2)n1 [compound 7] |  | > 1000 | 100 to 500
CN1Cc2cc(Cl)ccc2-n2c(nnc2C2CC3(C2)CN(c2cccnn2)C3)C1 [compound 13] |  | > 1000 | 100 to 500
CC(=O)N1CC2(CC(c3nnc4n3-c3ccc(Cl)cc3CN(C)C4)C2)C1 [compound 15] | > 1000 | > 1000 | 
Cc1ccc(N2CC3(CC(c4nnc5n4-c4ccc(Cl)cc4CN(C)C5)C3)C2)nc1 [compound 12] |  | > 1000 | 100 to 500
CN1Cc2cc(Cl)ccc2-n2c(nnc2C2CC3(C2)CN(c2cncc(F)c2)C3)C1 [compound 10] |  | > 1000 | 100 to 500
CCC(=O)N1Cc2cc(Cl)ccc2-n2c(nnc2C2CC3(C2)CN(c2cccnn2)C3)C1 [compound 108] | < 100 | > 1000 | 
Cc1cccc(N2CC3(CC(c4nnc5n4-c4ccc(Cl)cc4CN(C)C5)C3)C2)n1 [compound 6] | < 100 | > 1000 | 
COC(=O)N1Cc2cc(Cl)ccc2-n2c(C3CC4(C3)CN(c3ncncc3F)C4)nnc2C1C (centres unmarked) [compound 183] |  | 100 to 500 | 100 to 500
CC1c2nnc(C3CC4(C3)CN(c3ccc(F)cn3)C4)n2-c2ccc(Cl)cc2CN1C(=O)OC1CC1 (centres unmarked) [compound 191, cyclopropyl 8-chloro-1-(2-(5-fluoropyridin-2-yl)-2-azaspiro[3.3]heptan-6-yl)-4-methyl-4H-benzo[f][1,2,4]triazolo[4,3-a][1,4]diazepine-5(6H)-carboxylate] | < 100 | 500 to 1000 | 
CN1Cc2cc(Cl)ccc2-n2c(nnc2C2CC3(C2)CN(C(=O)OC(C)(C)C)C3)C1 [compound 9] |  | 500 to 1000 | 100 to 500
COc1ccc(N2CC3(CC(c4nnc5n4-c4ccc(Cl)cc4CN(C)C5)C3)C2)nc1 [compound 11] |  | > 1000 | 500 to 1000
CCOC(=O)N1Cc2cc(Cl)ccc2-n2c(nnc2C2CC3(C2)CN(c2ccccn2)C3)C1 [compound 68] | < 100 | > 1000 | 
CCC(=O)N1Cc2cc(Cl)ccc2-n2c(nnc2C2CC3(C2)CN(c2ccc(F)nn2)C3)C1 [compound 112] | < 100 | > 1000 | 
CN1Cc2cc(Cl)ccc2-n2c(nnc2C2CC3(C2)CN(c2cccnc2)C3)C1 [compound 5] |  | > 1000 | 100 to 500
